{"source": "ChEMBL document CHEMBL3045947", "about": "“Identification of Novel Non-nucleoside Reverse Transcriptase Inhibitors Using Fragment-based Lead Generation” (Med Chem Res, 2005)", "key": {"[1]": {"tested_on": "Human immunodeficiency virus 1", "assay": "Antiviral activity against Human immunodeficiency virus 1 IIIB infected human MT4 cells assessed as inhibition of virus-induced cytopathic effect after 7 days by MTT assay", "format": "functional, organism-based", "conditions": "MT4, 168 h"}, "[2]": {"assay": "Cytotoxicity against Homo sapiens (human) MT4 cells after 5 days by MTT assay", "format": "cell-based"}, "[3]": {"assay": "Selectivity index, ratio of CC50 for human MT4 cells to EC50 for HIV13B", "format": "toxicity, cell-based", "conditions": "read-out: Ratio CC50/EC50"}}, "data": [{"smiles": "COc1ccc(-c2cc(-c3ccccc3O)nc(N)n2)cc1", "values": [{"measurement": "EC50", "setting": "[1]", "result": "> 92.2", "unit": "µM"}, {"measurement": "CC50 at 120 h", "setting": "[2]", "result": 92.2, "unit": "µM"}]}, {"smiles": "Nc1nc(-c2ccccc2)cc(-c2ccccc2O)n1", "values": [{"measurement": "EC50", "setting": "[1]", "result": 3.22, "unit": "µM"}, {"measurement": "selectivity ratio", "setting": "[3]", "result": 10}, {"measurement": "CC50 at 120 h", "setting": "[2]", "result": 31.3, "unit": "µM"}]}, {"smiles": "Cc1ccc(-c2cc(-c3ccccc3O)nc(N)n2)cc1", "values": [{"measurement": "EC50", "setting": "[1]", "result": "> 125", "unit": "µM"}, {"measurement": "CC50 at 120 h", "setting": "[2]", "result": "> 128", "unit": "µM"}]}, {"smiles": "Cc1cccc(-c2cc(-c3ccccc3O)nc(N)n2)c1", "values": [{"measurement": "EC50", "setting": "[1]", "result": 3.45, "unit": "µM"}, {"measurement": "selectivity ratio", "setting": "[3]", "result": 4}, {"measurement": "CC50 at 120 h", "setting": "[2]", "result": 13, "unit": "µM"}]}, {"smiles": "Nc1nc(-c2cccs2)cc(-c2ccccc2O)n1", "values": [{"measurement": "EC50", "setting": "[1]", "result": 5.59, "unit": "µM"}, {"measurement": "CC50 at 120 h", "setting": "[2]", "result": 5.3, "unit": "µM"}]}, {"smiles": "COc1ccc(-c2cc(-c3ccccc3O)nc(N)n2)cc1OC", "values": [{"measurement": "EC50", "setting": "[1]", "result": "> 7.36", "unit": "µM"}, {"measurement": "CC50 at 120 h", "setting": "[2]", "result": 7.36, "unit": "µM"}]}, {"smiles": "COc1cccc(-c2cc(-c3ccccc3O)nc(N)n2)c1", "values": [{"measurement": "EC50", "setting": "[1]", "result": "> 78.3", "unit": "µM"}, {"measurement": "CC50 at 120 h", "setting": "[2]", "result": "> 78.3", "unit": "µM"}]}, {"smiles": "Nc1nc(-c2cccc(Cl)c2)cc(-c2ccccc2O)n1", "values": [{"measurement": "EC50", "setting": "[1]", "result": "> 125", "unit": "µM"}, {"measurement": "CC50 at 120 h", "setting": "[2]", "result": "> 125", "unit": "µM"}]}, {"smiles": "Nc1nc(-c2ccco2)cc(-c2ccccc2O)n1", "values": [{"measurement": "EC50", "setting": "[1]", "result": "> 125", "unit": "µM"}, {"measurement": "CC50 at 120 h", "setting": "[2]", "result": "> 125", "unit": "µM"}]}, {"smiles": "Nc1nc(-c2ccc(F)cc2)cc(-c2ccccc2O)n1", "values": [{"measurement": "EC50", "setting": "[1]", "result": "> 67.5", "unit": "µM"}, {"measurement": "CC50 at 120 h", "setting": "[2]", "result": 67.5, "unit": "µM"}]}, {"smiles": "Nc1nc(-c2ccc(Cl)cc2)cc(-c2ccccc2O)n1", "values": [{"measurement": "EC50", "setting": "[1]", "result": "> 74.7", "unit": "µM"}, {"measurement": "CC50 at 120 h", "setting": "[2]", "result": "> 74.7", "unit": "µM"}]}]}
